Experimental data from patent publication US7150974B1, “Parathyroid hormone receptor binding method” (The General Hospital Corporation, priority 1991, dated 2006).

What was measured:
[1] = target: T1, human kidney PTH/PTHrP receptor (Homo sapiens, UniProt Q03431, L389Q); assay: Radioreceptor assay, COS-7 cells transiently expressing human kidney PTH/PTHrP receptor (HKrk); assay type: binding
T1 construct: The full-length human kidney PTH/PTHrP receptor cDNA, HKrk, was constructed using the BamHI/PvuII fragment of PCR clone #2 and HK-2; expressed in transfected cells; host or cells: COS-7 cells, transient (DEAE/Dextran), pcDNAI
T1 sequence (Q03431 27-593 L389Q): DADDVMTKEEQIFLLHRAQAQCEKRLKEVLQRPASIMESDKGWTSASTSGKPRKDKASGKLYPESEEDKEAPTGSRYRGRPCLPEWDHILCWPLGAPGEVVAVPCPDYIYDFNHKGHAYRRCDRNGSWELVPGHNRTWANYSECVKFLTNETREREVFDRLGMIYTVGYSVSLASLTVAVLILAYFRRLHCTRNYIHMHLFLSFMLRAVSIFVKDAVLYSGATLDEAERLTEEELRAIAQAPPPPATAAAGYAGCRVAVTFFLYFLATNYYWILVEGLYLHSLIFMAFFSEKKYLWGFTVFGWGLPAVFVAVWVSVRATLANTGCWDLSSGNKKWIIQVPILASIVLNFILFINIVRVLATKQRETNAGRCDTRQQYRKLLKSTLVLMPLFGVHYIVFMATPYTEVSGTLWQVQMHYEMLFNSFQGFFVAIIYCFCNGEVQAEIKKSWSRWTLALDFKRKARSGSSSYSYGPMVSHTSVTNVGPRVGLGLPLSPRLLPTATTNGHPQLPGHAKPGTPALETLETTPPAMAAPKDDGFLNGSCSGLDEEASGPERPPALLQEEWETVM
Method: In brief, the labeled peptide was dissolved in 0.1% trifluoracetic acid (TFA), applied to a C18 Sep-pak cartridge (Waters Associates, Inc., Milford, Mass.) and eluted with a solution of 60% acetonitrile in 0.1% TFA. After lyophilization, the radioligand then was applied to C18-μBondapak column (3.9 mm×30 cm. Waters Associates) and eluted over 30 min with a linear gradient of 30-50% acetonitrile-0.1% TFA at a flow rate of 2 ml/min.
COS-7 cells were grown in 15 cm plates in DMEM, 10% heat-inactivated […], 10 mg/L gentamycin until 80-90% confluent. Twenty-four hours after transfection by the DEAE/Dextran method (Sambrook et al., supra), with 1-2 μg of plasmid DNA, the cells were trypsinized and replated in multiwell plastic dishes (16 or 35 mm diameter, Costar, Cambridge, Mass.) at a cell concentration of 5×10^4 cells/cm^2). […] After continuing culture for another 48 h, radiorecepter assays were performed. The culture medium was replaced with buffer containing 50 mM Tris-HCL (pH 7.7), 100 mM NaCl, 2 mM CaCl2, 5 mM KCL, 0.5% heat-inactivated fetal bovine serum (GIBCO), and 5% heat-inactivated horse serum (KC Biological Inc., Lenexa, Kans.) immediately before studies were initiated.
Incubations were terminated by aspirating the buffer, and repeatedly (×3) washing the culture dishes, containing the adherent cells with chilled 0.9% NaCl solution, over a 15 sec period. Cell-bound radioactivity was recovered by the sequential addition (×3) of 1 N NaOH (200 μl) to each well. After 30 min at room temperature, the NaOH was transferred to a glass tube. A second and third extraction with 1 N NaOH (200 μl) were combined with the first, and the total radioactivity was counted in a γ-spectrometer (Packard Instruments, Downers Grove, Ill.).

[2] = target: T2, rat bone PTH/PTHrP receptor (Rattus norvegicus, UniProt P25961, E586G); assay: Inositol phosphate metabolism, COS cells expressing R15B; assay type: cell-based; conditions: FIG. 15
T2 construct: expressed in transfected cells; host or cells: COS / COS-7 cells, transient, plasmid R15B (pcDNA I)
T2 sequence (P25961 27-591 E586G): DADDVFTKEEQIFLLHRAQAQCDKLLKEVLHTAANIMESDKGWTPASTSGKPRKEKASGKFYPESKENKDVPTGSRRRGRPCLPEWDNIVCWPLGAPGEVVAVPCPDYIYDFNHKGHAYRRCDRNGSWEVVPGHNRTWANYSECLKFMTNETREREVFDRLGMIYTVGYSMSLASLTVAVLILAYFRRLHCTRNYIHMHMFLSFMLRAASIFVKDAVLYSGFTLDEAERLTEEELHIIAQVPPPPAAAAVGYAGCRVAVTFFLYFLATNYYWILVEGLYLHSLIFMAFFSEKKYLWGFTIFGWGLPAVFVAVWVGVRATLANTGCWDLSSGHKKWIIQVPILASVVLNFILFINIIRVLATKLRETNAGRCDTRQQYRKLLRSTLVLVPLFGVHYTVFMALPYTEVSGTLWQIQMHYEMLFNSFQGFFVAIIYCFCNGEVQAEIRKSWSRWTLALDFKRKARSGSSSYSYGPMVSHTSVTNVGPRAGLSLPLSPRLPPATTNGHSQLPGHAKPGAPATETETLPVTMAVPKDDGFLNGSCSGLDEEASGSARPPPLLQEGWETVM

[3] = target: T2, rat bone PTH/PTHrP receptor; assay: Intracellular free calcium, COS-7 cells expressing R15B; assay type: cell-based; conditions: COS-7 cells expressing rat receptor
Method: Details of the methodology are:
Coverslips plated with COS cells were incubated in Fura-2 AM loading buffer containing, in mM: HEPES (N-[2-Hydroxyethyl]piperazine-N′-[2-ethanesulfonic acid]), 20; CaCl2, 1; KCl 5; NaCl, 145; MgSO4, 0.5; NaHCO3, 25; K2HPO4, 1.4; glucose, 10; and Fura-2 AM 91-(2-5′-carboxyoxazol-2′-yl)-6-aminobenzofuran-5oxy-(2′-amino-5′-methylphenoxy)ethane-N,N,N′,N′-tetraaecetic acid acetomethoxy ester), 0.5; at 37° C. at pH7.4, aerated with 95% air and 5% CO2 for 45 minutes. Cells loaded with Fura-2 AM were then washed with a modified Krebs-Heinseleit (KH) buffer containing, in mM: HEPES, 20; CaCl2, 1; KCl, 5; NaCl, 145; MgSO4, 0.5; Na2HPO4, 1; glucose, 5; pH7.4. To check that cleavage of the ester occurred, the excitation spectra after different times of Fura-2 AM incubation were measured.
To measure fluorescence of individual cells, the cover slips were placed in a microscope tissue chamber (Biophysica Technologies, Inc., MD). The chamber consisted of a shallow, sloped compartment made of Teflon with a silicone rubber seal. The cover slips served as the bottom of the chamber. A heater/cooler ring was encased in the silicone rubber which sealed the coverslip in place.

Substance: [Nle^8,18, Tyr^34]bPTH(1-34)amide
- fold higher apparent Kd, human versus rat bone PTH/PTHrP receptor ([1]; human versus rat receptor): 2 fold
- specific binding of radiolabelled ligand ([1]; radiolabelled ligand ~200,000 cpm, COS-7 cells transfected with cloned human PTH/PTHrP receptor): 10.1±3.7%
- inositol phosphate metabolism (IP3 and IP2 accumulation) [2]: rapid increase
- increase in intracellular free calcium, PTH(1-34) compared with PTHrP(1-36) [3]: to the same extent
